Assay results taken from BindingDB's records for doi:10.1016/j.bmcl.2003.10.007 (Inotek Pharmaceuticals, 2003).
Structures can show the parent of a compound that is named as a salt.

Assay: Tested for inhibition of poly(ADP-ribose) polymerase-1 (PARP-1) in mouse using Cell protection assay

Structure (SMILES)	IC50 [µM]
Nc1ncnc2c1ncn2C1O[C@H](CNC(=O)CCC(=O)Nc2cccc3c2CNC3=O)[C@@H](O)[C@H]1O (stereo not given in full)	0.1
O=C(CCCCCCC(=O)Nc1cccc2c1CNC2=O)NC[C@H]1OC(n2cnc3c(=O)[nH]cnc32)[C@H](O)[C@@H]1O (stereo not given in full)	68
Nc1ncnc2c1ncn2C1O[C@H](CNC(=O)CCCCCCC(=O)Nc2cccc3c2CNC3=O)[C@@H](O)[C@H]1O (stereo not given in full)	0.7
Nc1ncnc2c1ncn2C1O[C@H](C(=O)N2CCNCC2)[C@@H](O)[C@H]1O (stereo not given in full)	> 300
Nc1ncnc2c1ncn2C1O[C@H](CNC(=O)CC(=O)Nc2cccc3c2CNC3=O)[C@@H](O)[C@H]1O (stereo not given in full)	1.9
Nc1ncnc2c1ncn2C1O[C@H](CNC(=O)CCCCCCCC(=O)Nc2cccc3c2CNC3=O)[C@@H](O)[C@H]1O (stereo not given in full)	2
Nc1ncnc2c1ncn2C1O[C@H](CNC(=O)/C=C/c2ccc(C(=O)Nc3cccc4c3CNC4=O)cc2)[C@@H](O)[C@H]1O (stereo not given in full)	10
Nc1ncnc2c1ncn2C1O[C@H](CNC(=O)CCCCCC(=O)Nc2cccc3c2CNC3=O)[C@@H](O)[C@H]1O (stereo not given in full)	3
Nc1ncnc2c1ncn2[C@@H]1O[C@H](C(=O)N2CCN(CC(=O)Nc3cccc4c3CNC4=O)CC2)[C@@H](O)[C@H]1O [2-(4-((2S,3S,4R,5R)-5-(6-amino-9H-purin-9-yl)-3,4-dihydroxytetrahydrofuran-2-carbonyl)piperazin-1-yl)-N-(1-oxoisoindolin-4-yl)acetamide]	0.045
CN1CCN(CC(=O)Nc2cccc3c2CNC3=O)CC1 [2-(4-Methyl-piperazin-1-yl)-N-(1-oxo-2,3-dihydro-1H-isoindol-4-yl)-acetamide]	> 30
CNc1ncnc2c1ncn2CC(=O)Nc1cccc2c1CNC2=O [2-(6-Methylamino-purin-9-yl)-N-(1-oxo-2,3-dihydro-1H-isoindol-4-yl)-acetamide]	3
O=C(Cn1cnc2ccccc21)Nc1cccc2c1CNC2=O [2-Benzoimidazol-1-yl-N-(1-oxo-2,3-dihydro-1H-isoindol-4-yl)-acetamide]	3
CCNCC(=O)Nc1cccc2c1CNC2=O [2-Ethylamino-N-(1-oxo-2,3-dihydro-1H-isoindol-4-yl)-acetamide]	18

Continued, values first:

IC50 [µM]	Structure (SMILES)
> 30	CNCC(=O)Nc1cccc2c1CNC2=O [2-Methylamino-N-(1-oxo-2,3-dihydro-1H-isoindol-4-yl)-acetamide]
> 30	O=C(CN1CCOCC1)Nc1cccc2c1CNC2=O [2-Morpholin-4-yl-N-(1-oxo-2,3-dihydro-1H-isoindol-4-yl)-acetamide]
> 30	CN1CCN(CCC(=O)Nc2cccc3c2CNC3=O)CC1 [3-(4-Methyl-piperazin-1-yl)-N-(1-oxo-2,3-dihydro-1H-isoindol-4-yl)-propionamide]
30	Nc1cccc2c1CNC2=O [4-Amino-2,3-dihydro-isoindol-1-one]
30	O=C1N=Cc2ccccc21 [Isoindol-1-one]
18	O=C(CN1CCNCC1)Nc1cccc2c1CNC2=O [N-(1-Oxo-2,3-dihydro-1H-isoindol-4-yl)-2-piperazin-1-yl-acetamide; hydrochloride]
5	Nc1ncnc2c1ncn2C1OC(CNC(=O)CCC(=O)Nc2cccc(-c3ccccc3)c2)[C@@H](O)[C@H]1O (stereo partly drawn) [N-[(3S,4R)-5-(6-Amino-purin-9-yl)-3,4-dihydroxy-tetrahydro-furan-2-ylmethyl]-N'-biphenyl-3-yl-succinamide]
